In test [1] the target is T1, cystine/glutamate transporter (Mus musculus, UniProt Q9WTR6).
T1 sequence (Q9WTR6 1-502): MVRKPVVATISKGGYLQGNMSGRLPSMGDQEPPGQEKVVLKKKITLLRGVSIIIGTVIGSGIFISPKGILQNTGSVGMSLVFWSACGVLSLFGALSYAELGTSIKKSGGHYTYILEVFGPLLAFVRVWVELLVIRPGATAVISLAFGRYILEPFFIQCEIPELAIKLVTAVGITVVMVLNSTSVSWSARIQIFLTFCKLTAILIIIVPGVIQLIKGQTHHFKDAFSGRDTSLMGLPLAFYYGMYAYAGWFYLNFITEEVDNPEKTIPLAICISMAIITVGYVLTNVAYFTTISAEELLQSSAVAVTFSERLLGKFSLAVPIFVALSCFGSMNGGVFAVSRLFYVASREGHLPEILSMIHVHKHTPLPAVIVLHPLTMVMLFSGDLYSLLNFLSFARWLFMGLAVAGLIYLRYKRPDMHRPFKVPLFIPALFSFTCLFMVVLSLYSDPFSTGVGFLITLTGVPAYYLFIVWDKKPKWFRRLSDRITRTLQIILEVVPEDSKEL
T1 sequence (P10852 1-526 partner): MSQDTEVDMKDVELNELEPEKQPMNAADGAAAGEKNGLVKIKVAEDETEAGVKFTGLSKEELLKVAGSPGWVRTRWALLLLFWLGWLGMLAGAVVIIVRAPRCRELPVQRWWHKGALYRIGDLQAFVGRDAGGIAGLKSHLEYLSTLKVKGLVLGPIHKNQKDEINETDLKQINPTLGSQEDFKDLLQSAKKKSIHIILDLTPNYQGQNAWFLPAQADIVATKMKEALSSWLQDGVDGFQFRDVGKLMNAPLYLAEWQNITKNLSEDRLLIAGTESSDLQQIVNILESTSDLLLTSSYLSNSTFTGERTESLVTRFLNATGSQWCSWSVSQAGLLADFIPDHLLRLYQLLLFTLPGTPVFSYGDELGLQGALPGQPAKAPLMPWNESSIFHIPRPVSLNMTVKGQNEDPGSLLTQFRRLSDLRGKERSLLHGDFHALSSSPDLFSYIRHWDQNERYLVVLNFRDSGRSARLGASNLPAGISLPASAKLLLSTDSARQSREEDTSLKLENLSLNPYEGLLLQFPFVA
Nature of the test: 3H-L-Asu uptake in EL4 cells with or without DEM and with transporter inhibitors (Example 1). More on the design: endogenous in cells; host or cells: EL4 mouse lymphoma cells, with or without diethylmaleate (DEM) treatment. Type of test: cell-based. As to the method:
Mouse lymphoma cells (EL4) were cultured with or without 100 μM diethylmaleate for 24 hours, washed in phosphate buffered saline (PBS) divided into aliquots of 5×10^6 cells and incubated with [^3H]-L-2-aminosuberic acid (^3H-L-Asu) without or with inhibitors of the cystine/glutamate transporter for 15 minutes. Cells were then washed 3 times and collected in a 1 ml volume of 1M HCl and transferred to a scintillation vial. 12 ml of Ready Gel scintillation fluid was added to each sample and cell uptake was determined by scintillation counting using a Perkin Elmer Tri-Carb Liquid Scintillation Analyzer.

Test [2] concerns the target T1, cystine/glutamate transporter. Briefly: Screen of unlabeled compounds for competition with 3H-L-ASU uptake (Example 3). Type of test: cell-based. Set-up: endogenous in cells. As to conditions: read-out: inhibition of ^3H-L-ASU uptake.
For test [3] the target is unchanged. Briefly: cell-based.
The target is the same in test [4]. Briefly: Uptake of labeled compounds in DEM treated EL4 cells with or without SSZ (Example 2). Format: cell-based. More on the design: endogenous in cells; host or cells: EL4 mouse lymphoma cells, with or without diethylmaleate (DEM) treatment. The settings on record: for inhibition of uptake by SSZ: 500 μM SSZ; for Uptake relative to ^3H-GLU: 0.33 μCi; for SSZ inhibition (%): uptake of the labeled compound with 500 μM SSZ. As to the method:
5×10^6 DEM treated EL4 cells were incubated with 0.33 μCi of either [^3H]-L-ASU, [^3H]-L-GLU or [^35S]-L-Cystine (with or without 500 μM SSZ) for 15 minutes before being washed three times in PBS and uptake was analyzed via liquid scintillation counting.

Test [5] relates to EL4 xenograft tumor tissue slices. Briefly: Ex vivo uptake in EL4 xenograft tumor tissue slices (Example 5). Type of test: cell-based, mouse. The settings on record: 0.33 μCi, 30 minutes, agents matched for specific activity and radioactive dose. As to the method: We compared uptake of ^3H-ASU in tumor tissue ex vivo with uptake of ^3H-FDG, a tritiated form of the common ^18F-FDG imaging agent. the two agents were matched for specific activity and radioactive dose. 0.33 μCi of agent was incubated with equivalent aliquots of EL4 xenograft tumor tissue slices for 30 minutes (tumors processed with three passes on a McIlwain Tissue chopper, at 500 um steps, and washed with fresh buffer). Slices where washed three times, lysed with 1M HCl and evaluated by scintillation counting.

Test [6] deals with T1, cystine/glutamate transporter. The settings on record: read-out: IC50 for inhibition of ^3H-L-GLU uptake; DEM treated EL4 cells; separate set of experiments.
The mark [7] stands for this setting: unlabeled competitor at high concentration (2.5 mM).

SMILES strings stand for the structures. Where two headings read alike, the source gives them in different places.

In test [1] (inhibitor 500 μM, EL4 cells, 15 minutes), `O=C(O)c1cc(/N=N/c2ccc(S(=O)(=O)Nc3ccccn3)cc2)ccc1O` [sulfasalazine] came in with an inhibition at 500 µM of more than 95%.
`N[C@@H](CCC(=O)NCC(=O)O)C(=O)O` [γ-glutamyl-glycine]: the inhibition at 2500 µM in test [2] (setting [7]) is less than 45%.
On to `N[C@@H](CCCCCC(=O)O)C(=O)O` [L-ASU, L-aminosuberic acid], for which the inhibition at 2500 µM in test [2] was more than 90%; in test [1] (EL4, read-out: inhibition of ^3H-L-Asu uptake), more than 95%. In addition, in test [3], it took 2.9 µM to reach half-maximal inhibition (IC50).
Turning to `N[C@@H](CSSC[C@H](N)C(=O)O)C(=O)O` [^35S-Cystine, [^35S]-L-Cystine], the “inhibition of uptake by SSZ” value in test [4] is recorded as “approximately ⅔”. In addition, in test [4] (15 minutes), the “Uptake relative to ^3H-GLU” value is given as 168.8 (±2.0) and the “SSZ inhibition (%)” value was 68.7 (±1.76) %.
Turning to `N[C@H](CCCCCC(=O)O)C(=O)O` [D-ASU], the inhibition at 2500 µM in test [2] was more than 90%. The same compound came in with an IC50 in test [3] of 36.2 µM.
On to `N[C@@H](CCCC(=O)O)C(=O)O` [L-AAA, L-aminoadipic acid], for which the inhibition at 2500 µM in test [2] (setting [7]) was more than 90%. Also, the concentration for half-maximal inhibition (IC50) in test [3] is 23.9 µM.
With `N[C@H](CCC[C@H](N)C(=O)O)C(=O)O` [DiAPA, diaminopimelic acid], in test [2] (setting [7]), the inhibition at 2500 µM is less than 45%.
Regarding `[3H]C(CCC(=O)O)C([3H])C[C@H](N)C(=O)O` (stereo partly drawn) [^3H-Asu, (S)-2-amino 4,5-^3H-suberic acid], the “inhibition of uptake by SSZ” value in test [4] is “almost completely inhibited”. Also, in test [4] (15 minutes), the “Uptake relative to ^3H-GLU” value is 447.0 (±22.1), the “uptake efficiency relative to L-GLU uptake” value is “approximately 4.5 times” and the “SSZ inhibition (%)” value was 95.8 (±0.17) %. Further, the “more uptake than ^3H-FDG” value in test [5] was found to be 70%. Further, the “^3H-L-Asu uptake in cells exposed to oxidative stress” value in test [1] (EL4 cells, 100 μM diethylmaleate (DEM) 24 hours vs without, 15 minutes incubation) was “increased”.
Consider `O=C(O)CCCCCCC(=O)O` [suberic acid], for which the inhibition at 2500 µM in test [2] (setting [7]) is less than 45%.
Regarding `N[C@@H](CCC(=O)O)C(=O)O` [L-GLU, L-glutamate], the half-inhibitory concentration (IC50) in test [6] was 4.7 µM.

What is called inhibition is the change of the read-out against control, counted positive when it falls. What is called IC50 is the point on the concentration scale where inhibition reaches its midpoint.

(Values after patent US8784774B2, “Labeled molecular imaging agents and methods of use” (General Electric Company, priority 2011, dated 2014).)
